Measured values reported in patent US12060588B2, “Methods of editing DNA methylation” (Whitehead Institute for Biomedical Research, priority 2016, dated 2024).

System: C3H10T1/2 mouse embryonic fibroblast cells
Experiment: Fibroblast-to-myoblast conversion assay
Type: cell-based
From the text: FIGS. 4A-4H depict targeted demethylation of the MyoD distal enhancer by dCas9-Tet1 to facilitate conversion of fibroblasts to myoblasts. FIG. 4A provides a schematic representation of targeting the MyoD distal enhancer (DE) region in DMR-5 by dCas9-Tet1 (dC-T) with specific gRNAs. […] Cherry positive cells were FACS sorted for RT-qPCR analysis. Bars represent mean±SD of three experimental replicates. FIG. 4C bisulfite sequencing of cells in FIG. 4B. […] Shown is the mean percentage±SD of two biological replicates. […] C3H10T1/2 cells were plated as 1×10^4 cells per well in 6-well plate, and then infected with lentiviruses expressing dC-T and gRNAs targeting DMR-5, or a catalytic dead form of Tet1 (dC-dT) with target gRNAs. 24-hour post infection, cells were treated with vehicle control (HEPES buffer) or 5-Azacytidine (1 uM) for 24-hour, and then harvested after 14 days for immunofluorescence staining. Stained in green for MyoD, magenta for MHC and blue for DAPI. Scale bar: 200 um. FIG. 4F provides quantification of MyoD positive cell ratio 14-day post infection with lentiviruses expressing dC-T alone, dC-T with gRNAs targeting DMR-5, and dC-dT with the target gRNAs. […] FIG. 4H provides quantification of myotube density in MHC positive clusters with more than 2 or 5 nuclei at 14-days after infection. […] Data are quantified from 3-5 representative images for F-H. Bars represent mean±SD.
FIGS. 12A-12J depict targeted demethylation of the MyoD DMR-5 by dCas9-Tet1 and conversion of fibroblasts to myoblasts. […] PAM for each sgRNA is highlighted by a red box. FIG. 12B provides experimental scheme of the fibroblast-to-myoblast conversion assay. Briefly, C3H10T1/2 mouse embryonic fibroblast cells were plated as 1×10^4 cells per well in 6-well plate, and then infected with lentiviruses expressing dCas9-Tet1 and target gRNAs. 24-hour post infection, cells were optionally treated with 5-Azacytidine (1 uM) for 24-hour (labeled in red), and harvested for immunofluorescence staining at different time points (day-14, -16 and -25, labeled in dark blue) with medium change every other day. Scale bar: 100 um. […] Stained in green for MHC, red for MyoD and blue for DAPI. Scale bar: 200 um. FIG. 12D depicts a fraction of mock C3H10T1/2 cells expressing MyoD at different times after 5-Aza treatment. The fraction of cells expressing MyoD increases from around 6% at day 14 to around 13% at day 16 and reached around 20% at day 25. Bars represent mean±SD. FIG. 12E provides number of nuclei in MHC+ cell clusters (grouped as 1-2 and >2 nuclei per MHC+ cluster). […] Bars represent mean±SD. Data was quantified from 3-5 representative images for each group in FIG. 12D and FIG. 12E. […] Bars represent mean±SD of three experimental replicates. FIG. 12G provides representative images for C3H10T1/2 cells 16 days after infection with lentiviruses expressing dC-T and gRNAs targeting DMR-5 (MyoD distal enhancer) in a fibroblast-to-myoblast conversion assay as described in FIG. 12B. […] Stained in magenta for MHC, green for MyoD and blue for DAPI. Scale bar: 200 um. FIG. 12H depicts a fraction of MyoD positive cells 16 days after infection with lentiviruses expressing dC-T alone or with gRNAs targeting DMR-5. FIG. 12I show a number of nuclei in MHC+ cell clusters (grouped as 2-5, 6-10, 11-20 and >20 nuclei per MHC+ cluster) 16 days after infection. […] Data are quantified from 3-5 representative images for FIGS. 12H-12J. Bars represent mean±SD.
We then investigated whether targeted demethylation of DMR-5 would synergize with 5-Aza treatment to induce myotube formation (FIG. 12B). To follow the process of myotube formation after 5-Aza treatment, a time-course experiment was performed. Multi-nucleated myotube (MHC-positive) with heterogeneous sizes began to form 14 days post treatment, and both MyoD-positive cell ratio and myotube density and size then increased up to day-25 (FIGS. 12C-12E). […]

Substance: dCas9-Tet1: catalytically inactive Cas9 (dCas9) fused through NLS to the Tet1 catalytic domain, SEQ ID NO: 159; lentivirally expressed with gRNAs
- MyoD expression level (immunofluorescence) (with gRNAs targeting DMR-5, 14 days, absence of 5-Aza): moderate expression level of MyoD
- myotube formation (with gRNAs targeting DMR-5, 14 days, absence of 5-Aza treatment): not sufficient to induce myotube formation
- myotube formation (MHC+ clusters, >2 nuclei per cluster) (with gRNAs targeting MyoD DMR-5 plus 5-Aza, 14 days post-treatment, versus dCas9-Tet1 only or dC-dT): facilitated the myotube formation
